This assay can be described thus: Sweet potency as logarithm of sweet potency (log SP) relative to sucrose. The class given is functional.
With `CCCCOC(=O)[C@H](NC(=O)[C@@H](N)CC(=O)O)[C@H](C)O`, the Log SP was found to be 1.23.

Regarding `COC(=O)[C@H](NC(=O)[C@@H](N)CC(=O)O)[C@@H](C)O`, the Log SP worked out at 0.71.

On to `CCOC(=O)C[C@H](C)NC(=O)[C@H](N)CC(=O)O` (stereo in doubt; 128), for which the Log SP came out at 1.16.

In turn, `CCC[C@@H](NC(=O)[C@H](N)CC(=O)O)C(=O)OC` returned a Log SP of 0.46.

The compound `CCC(C)[C@@H](NC(=O)[C@@H](N)CC(=O)O)C(=O)OC(C)C` (stereo partly specified) showed a Log SP of 0.53.

`CC[C@@H](COC(=O)C1CC1)NC(=O)[C@H](N)CC(=O)O`: the Log SP stood at 1.38.

Turning to `CCCCOC(=O)[C@H](NC(=O)[C@@H](N)CC(=O)O)[C@@H](C)O`, the Log SP is 1.41.

Compound `C[C@@H](CCc1ccccc1)NC(=O)[C@H](N)CC(=O)O` showed a Log SP of 0.89.

As to `CCOC(=O)[C@H](CO)NC(=O)[C@H](N)CC(=O)O`, the Log SP came to 1.92.

`CC(=O)OC[C@H](CO)NC(=O)[C@H](N)CC(=O)O` gave a Log SP of 1.23.

The compound `N[C@H](CC(=O)O)C(=O)NCCC(=O)OC1CCCCC1` had a Log SP of 1.22.

`CCCCOC(=O)[C@H](C)NC(=O)[C@H](N)CC(=O)O` displayed a Log SP of 0.9.

For the compound `COC(=O)[C@@H](CCCNC(C)=O)NC(=O)[C@H](N)CC(=O)O`, the Log SP came to 0.25.

In turn, `C[C@@H](COC(=O)C(C)(C)C)NC(=O)[C@H](N)CC(=O)O` displayed a Log SP of 2.28.

As to `CCCCC[C@@H](NC(=O)[C@H](N)CC(=O)O)C(=O)OC`, the Log SP was 1.9.

On to `COC(=O)C(NC(=O)[C@@H](N)CC(=O)O)C(=O)OC1CCCC(C)C1` (stereo partly specified), for which the Log SP was 3.02.

For the compound `CCC[C@H](NC(=O)[C@H](N)CC(=O)O)C(=O)OC(C)C`, the Log SP turned out to be 1.43.

`COC(=O)C(NC(=O)[C@@H](N)CC(=O)O)C(=O)OC1C(C)CCCC1C` (stereo partly specified): the Log SP amounted to 4.02.

The compound `COC(=O)[C@H](NC(=O)[C@H](N)CC(=O)O)C(=O)OC1CCC(C)CC1` (stereo partly specified) registered a Log SP of 1.87.

Take `CCCC[C@H](C)NC(=O)[C@H](N)CC(=O)O`: the Log SP turned out to be 1.6.

With `CC(C)CC(=O)OCCNC(=O)[C@H](N)CC(=O)O`, the Log SP stood at 1.36.

In the case of `COC(=O)[C@H](CO)NC(=O)[C@H](N)CC(=O)O`, the Log SP was 1.49.

As for `N[C@H](CC(=O)O)C(=O)N[C@@H](CO)COC(=O)C1CCC1`, the Log SP stood at 1.71.

The compound `CC(C)OC(=O)[C@H](NC(=O)[C@@H](N)CC(=O)O)[C@H](C)O` had a Log SP of 0.91.

Consider `CCOC(=O)[C@H](NC(=O)[C@H](N)CC(=O)O)C(=O)OC1CCCCC1`, for which the Log SP was found to be 2.68.

In turn, `CCCCCC[C@@H](NC(=O)[C@H](N)CC(=O)O)C(=O)OC` displayed a Log SP of 2.07.

Regarding `CC(C)(C)OC(=O)CCNC(=O)[C@H](N)CC(=O)O`, the Log SP stood at 0.36.

On to `CCCCCOC(=O)[C@H](C)NC(=O)[C@H](N)CC(=O)O`, for which the Log SP came to 0.68.

`CCOC(=O)C(NC(=O)[C@H](N)CC(=O)O)C(=O)OCC`: the Log SP is 1.35.

The compound `CC1CCC1C(=O)OC[C@H](C)NC(=O)[C@H](N)CC(=O)O` (stereo partly specified) returned a Log SP of 2.13.

In the case of `CCC(=O)OC[C@@H](NC(=O)[C@H](N)CC(=O)O)C(C)C`, the Log SP came out at 1.6.

The compound `CC(CNC(=O)[C@H](N)CC(=O)O)C(=O)OC(C)(C)C` (stereo partly specified) displayed a Log SP of 0.51.

`CCCC(C)OC(=O)CCNC(=O)[C@H](N)CC(=O)O` (stereo partly specified): the Log SP is 0.68.

For `CCSC[C@@H](NC(=O)[C@H](N)CC(=O)O)C(=O)OC`, the Log SP amounted to 1.6.

`CCCC(O)[C@H](NC(=O)[C@H](N)CC(=O)O)C(=O)OC` (stereo in doubt; 56) returned a Log SP of 1.16.

`C[C@@H](Cc1ccc(F)cc1)NC(=O)[C@H](N)CC(=O)O`: the Log SP stood at 1.5.

`CCCSC[C@@H](NC(=O)[C@H](N)CC(=O)O)C(=O)OC` came in with a Log SP of 2.11.

Compound `N[C@H](CC(=O)O)C(=O)N[C@@H](CO)C(=O)OC1CCCCC1` had a Log SP of 1.72.

The compound `CCCOC(=O)[C@H](NC(=O)[C@@H](N)CC(=O)O)[C@H](C)O` registered a Log SP of 1.51.

Compound `CC(C)OC(=O)[C@@H](NC(=O)[C@H](N)CC(=O)O)C(C)C` had a Log SP of 2.15.

`CCC(C)OC(=O)C[C@H](C)NC(=O)[C@H](N)CC(=O)O` (stereo partly specified) gave a Log SP of 0.6.

`CCOC(=O)C(NC(=O)[C@@H](N)CC(=O)O)C(=O)OCC1C2(C)CCC(C2)C1(C)C` (stereo partly specified) gave a Log SP of 4.05.

The compound `COC(=O)[C@H](C)NC(=O)[C@H](N)CC(=O)O` registered a Log SP of 1.2.

Consider `CC(C)[C@@H](COC(=O)C1CC1)NC(=O)[C@H](N)CC(=O)O`, for which the Log SP is 1.22.

The compound `CCCCC[C@H](C)NC(=O)[C@H](N)CC(=O)O` (stereo in doubt; 10) yielded a Log SP of 1.43.

Consider `CC(C)CCC(C)NC(=O)[C@H](N)CC(=O)O` (stereo partly specified), for which the Log SP was found to be 1.54.

Consider `CC[C@@H](COC(=O)C1CCC1)NC(=O)[C@H](N)CC(=O)O`, for which the Log SP was determined as 1.4.

On to `COC(=O)[C@@H](COC(C)(C)C)NC(=O)[C@H](N)CC(=O)O`, for which the Log SP was determined as 2.15.

For the compound `CCOC(=O)C(NC(=O)[C@@H](N)CC(=O)O)C(=O)OC1CCCCC1C` (stereo partly specified), the Log SP turned out to be 3.09.

`C[C@@H](COC(=O)C1CCCC1)NC(=O)[C@H](N)CC(=O)O` yielded a Log SP of 1.7.

The compound `CCC(C)C(=O)OC[C@H](C)NC(=O)[C@H](N)CC(=O)O` (stereo partly specified) yielded a Log SP of 2.08.

`COC(=O)C(C)C[C@H](NC(=O)[C@@H](N)CC(=O)O)C(=O)OC` (stereo partly specified) displayed a Log SP of 1.15.

Consider `CC(C)CC(=O)OC[C@H](CO)NC(=O)[C@H](N)CC(=O)O`, for which the Log SP amounted to 1.3.

Compound `CCOC(=O)[C@H](NC(=O)[C@@H](N)CC(=O)O)[C@@H](C)O` returned a Log SP of 0.66.

Compound `CC(C)OC(=O)C[C@H](C)NC(=O)[C@H](N)CC(=O)O` gave a Log SP of 0.84.

Take `CC(C)OC(=O)[C@H](NC(=O)[C@@H](N)CC(=O)O)[C@@H](C)O`: the Log SP worked out at 1.93.

In turn, `N[C@H](CC(=O)O)C(=O)NCCc1ccc(F)cc1` displayed a Log SP of 0.57.

For the compound `CC(CNC(=O)[C@H](N)CC(=O)O)C(=O)OC1CCCCC1` (stereo partly specified), the Log SP was 0.94.

The compound `COC(=O)CCNC(=O)[C@H](N)CC(=O)O` displayed a Log SP of 0.11.

As for `CC(C)C(=O)OC[C@H](CO)NC(=O)[C@H](N)CC(=O)O`, the Log SP was determined as 1.48.

`C[C@@H](COc1ccccc1)NC(=O)[C@H](N)CC(=O)O`: the Log SP was found to be 1.19.

In the case of `CC1CC1C(=O)OC[C@H](C)NC(=O)[C@H](N)CC(=O)O` (stereo partly specified), the Log SP was 1.68.

In the case of `CCC(=O)OC[C@H](CO)NC(=O)[C@H](N)CC(=O)O`, the Log SP is 1.99.

The compound `CC(C)OC(=O)C(C)CNC(=O)[C@H](N)CC(=O)O` (stereo partly specified) gave a Log SP of 0.18.

`CCC(CC)C(=O)OC[C@H](C)NC(=O)[C@H](N)CC(=O)O`: the Log SP was found to be 1.53.

`COC(=O)CC[C@@H](NC(=O)[C@H](N)CC(=O)O)C(=O)OC` displayed a Log SP of 2.

Turning to `COC[C@@H](COC(C)=O)NC(=O)[C@H](N)CC(=O)O`, the Log SP turned out to be 0.48.

`COC(=O)C(NC(=O)[C@@H](N)CC(=O)O)C(C)c1ccccc1` (stereo partly specified) displayed a Log SP of 0.95.

In the case of `CC(C)C(=O)OC[C@H](C)NC(=O)[C@H](N)CC(=O)O`, the Log SP is 1.98.

With `CCCC[C@@H](NC(=O)[C@H](N)CC(=O)O)C(=O)OC`, the Log SP was 1.49.

Consider `CCCC(=O)OC[C@@H](NC(=O)[C@H](N)CC(=O)O)C(=O)OC`, for which the Log SP was 1.43.

The values above are taken from ChEMBL document CHEMBL1121833, “Structure--sweetness relationship of L-aspartyl dipeptide analogues. A receptor site topology” (J Med Chem, 1981).
